Source: ChEMBL document CHEMBL5241075, “Advancement of chimeric hybrid drugs to cure malaria infection: An overview with special emphasis on endoperoxide pharmacophores” (Eur J Med Chem, 2021)

What was measured:
Plasmodium berghei [1] = experiment: Antiplasmodial activity against Plasmodium berghei N infected in sc dosed mouse assessed as reduction in parasitemia; assay type: functional
Plasmodium falciparum [2] = experiment: Antiplasmodial activity against Plasmodium falciparum NF54; assay type: functional, organism-based
Plasmodium falciparum [3] = experiment: Antiplasmodial activity against Plasmodium falciparum 3D7; assay type: functional, organism-based
Plasmodium falciparum [4] = experiment: Antiplasmodial activity against Plasmodium falciparum K1; assay type: functional, organism-based; conditions: Plasmodium falciparum, K1; read-out: EC50
Plasmodium falciparum [5] = experiment: Antiplasmodial activity against Plasmodium falciparum DD2; assay type: functional, organism-based
Plasmodium berghei [6] = experiment: Antiplasmodial activity against Plasmodium berghei infected in mouse assessed as reduction in parasitemia at 65 mg/kg, sc measured after 4 days post treatment relative to control; assay type: functional; design: scale not given: the % may be the effect or the level left; conditions: time 4 day
Plasmodium berghei [7] = experiment: Antiplasmodial activity against Plasmodium berghei infected in mouse assessed as reduction in parasitemia at 35 microg/kg, sc measured after 4 days post treatment relative to control; assay type: functional; design: scale not given: the % may be the effect or the level left; conditions: dose 35 µg/kg, time 4 day
Plasmodium berghei [8] = experiment: Antiplasmodial activity against Plasmodium berghei infected in mouse assessed as reduction in parasitemia by measuring survival rate at 35 microg/kg, sc measured after 41 days of post infection relative to control; assay type: functional; conditions: 984 h, dose 35 µg/kg, time 41 day
Plasmodium falciparum [9] = experiment: Antiplasmodial activity against Plasmodium falciparum W2; assay type: functional, organism-based
Plasmodium falciparum [10] = experiment: Antiplasmodial activity against Plasmodium falciparum gametocytes assessed as inhibition of gametocyte activation by [3H]hypoxanthine incorporation assay; assay type: functional, organism-based
Plasmodium falciparum [11] = experiment: Antiplasmodial activity against Plasmodium falciparum gametocytes by [3H]hypoxanthine incorporation assay; assay type: functional, organism-based
Plasmodium falciparum [12] = experiment: Antiplasmodial activity against Plasmodium falciparum TM91C235; assay type: functional, organism-based
Plasmodium berghei [13] = experiment: Antiplasmodial activity against Plasmodium berghei N infected in po dosed mouse assessed as reduction in parasitemia; assay type: functional
Plasmodium falciparum [14] = experiment: Antiplasmodial activity against Plasmodium falciparum D6; assay type: functional, organism-based
Plasmodium falciparum [15] = experiment: Antiplasmodial activity against Plasmodium falciparum D10; assay type: functional, organism-based; conditions: Plasmodium falciparum, D10
Hemozoin = experiment: Inhibition of Beta-hematin in Plasmodium falciparum
[16] = system: Plasmodium yoelii nigeriensis; experiment: Antiplasmodial activity against Plasmodium yoelii nigeriensis infected in po dosed mouse assessed as reduction in parasitemia; assay type: functional
[17] = system: Plasmodium yoelii nigeriensis; experiment: Antiplasmodial activity against Plasmodium yoelii nigeriensis infected in sc dosed mouse assessed as reduction in parasitemia; assay type: functional
Plasmodium falciparum [18] = experiment: Antimalarial activity against chloroquine resistant Plasmodium falciparum FcM29 Cameron; assay type: functional, organism-based
Plasmodium falciparum [19] = experiment: Antimalarial activity against chloroquine sensitive Plasmodium falciparum D6; assay type: functional, organism-based
Plasmodium berghei [20] = experiment: Antiplasmodial activity against Plasmodium berghei infected in mouse assessed as reduction in parasitemia at 6.8 mg/kg in presence of mefloquine relative to control; assay type: functional; design: scale not given: the % may be the effect or the level left
Plasmodium berghei [21] = experiment: Antiplasmodial activity against Plasmodium berghei infected in mouse assessed as reduction in parasitemia at 13 mg/kg in presence of mefloquine relative to control; assay type: functional; design: scale not given: the % may be the effect or the level left

`C[C@@H]1CC[C@H]2[C@@H](C)C(c3cccn3C)O[C@@H]3O[C@]4(C)CC[C@@H]1[C@]32OO4` (some centres not stated) was tested, and the ED50 (Plasmodium berghei [1]) was 0.7 mg/kg and the IC50 (Plasmodium falciparum [2]) was 0.0046 µM.
`C[C@H]1[C@H](OC(=O)CCC(=O)CCNc2ccnc3cc(Cl)ccc23)O[C@@H]2O[C@]3(C)CC[C@H]4[C@H](C)CC[C@@H]1[C@@]24OO3` gave an EC50 (Plasmodium falciparum [3]; read-out: EC50) of 0.0045 µM, an EC50 (Plasmodium falciparum [4]) of 0.0017 µM and an EC50 (Plasmodium falciparum [5]) of 0.0023 µM. It also gave an Activity (Plasmodium berghei [6]) of over 99%, an Activity (Plasmodium berghei [7]) of 95.2% and a survival at 0.035 mg/kg (Plasmodium berghei [8]) of 80%.
With `O[C@@H](c1cc(C(F)(F)F)nc2c(C(F)(F)F)cccc12)[C@H]1CCCCN1` [(S,R)-MEFLOQUINE] the IC90 (Plasmodium falciparum [9]) was 0.64 µM, the IC50 (Plasmodium falciparum [10]) was 5600 µM and the IC50 (Plasmodium falciparum [11]) was 16500 µM. For the same compound, the IC50 (Plasmodium falciparum [12]) was 0.13 µM and the IC90 (Plasmodium falciparum [12]) was 0.264 µM.
Work on `Cc1ccc(C2O[C@@H]3O[C@]4(C)CC[C@H]5[C@H](C)CC[C@@H]([C@H]2C)[C@@]35OO4)o1` (some centres not stated) yielded an ED50 (Plasmodium berghei [13]) of 15.5 mg/kg, an ED50 (Plasmodium berghei [1]) of 0.9 mg/kg and an IC50 (Plasmodium falciparum [2]) of 0.0052 µM.
In the case of `C[C@@H]1CC[C@H]2[C@@H](C)C(=O)O[C@@H]3O[C@@]4(C)CC[C@@H]1[C@]32OO4` [ARTEMISININ], the IC50 (Plasmodium falciparum [9]) is reported as 0.0067 µM, the IC90 (Plasmodium falciparum [9]) is reported as 0.0115 µM and the IC50 (Plasmodium falciparum [14]) is reported as 0.009 µM. The IC90 (Plasmodium falciparum [14]) was 0.0128 µM, the IC50 (Plasmodium falciparum [3]) was 0.00532 µM and the IC50 (Plasmodium falciparum [15]) was 0.023 µM. For the same compound, the IC50 (Hemozoin) was 0.66 equiv, the CD50 [16] was 75 mg/kg/day and the CD90 [16] was over 100 mg/kg/day. The ED50 ([16]; Plasmodium yoelii) was 16 mg/kg/day, the ED90 ([16]; Plasmodium yoelii) was 27 mg/kg/day and the CD50 [17] was 3 mg/kg/day. For the same compound, the CD90 [17] was 5 mg/kg/day, the ED50 ([17]; Plasmodium yoelii) was 3 mg/kg/day and the ED90 ([17]; Plasmodium yoelii) was 5 mg/kg/day. The IC50 (Plasmodium falciparum [18]) was 0.007 µM, the IC50 (Plasmodium falciparum [19]) was 0.008 µM and the IC50 (Plasmodium falciparum [12]) was 0.013 µM. For the same compound, the IC90 (Plasmodium falciparum [12]) was 0.0174 µM.
`C[C@@H]1CC[C@H]2[C@@H](C)C(CCC(=O)Nc3ccc(F)cc3)O[C@@H]3O[C@]4(C)CC[C@@H]1[C@]32OO4` (some centres not stated) was tested, and the Activity (Plasmodium berghei [20]) was 99% and the Activity (Plasmodium berghei [21]) was 99.6%.
